The subject of one assay is BCWM.1 cells. Description: Western blot of survival signaling in WM cells. In kind it is cell-based, human. The conditions noted are these: 6 h, cultured in the context of BM-MSCs, increasing concentrations. How it is done:
BCWM.1 cells were exposed to BMS-936564 for 6 h in presence or absence of primary WM BM-MSCs. The BCWM.1 cells were then harvested and cell lysates were subjected to western blot analysis using anti-phospho(p)-ERK1/2, anti-ERK1/2, anti-p-Akt, anti-Akt, anti-p-SRC, and anti-SRC antibodies. BCWM.1 cells cultured in the absence of WM BM-MSCs were used as control. Bars indicate standard deviation.
(§1) Protein lysates were obtained from WM cells by homogenization under nondenaturing conditions in lysis buffer (Cell Signaling Technology, Beverly, Mass.) supplemented with 5 mM NaF, 2 mM Na3VO4, 1 mM PMSF ([…]), 5 μg/mL leupeptine, and 5 μg/mL aprotinin. Whole-cell lysates were subjected to sodium dodecyl sulfate-polyacrylamide gel electrophoresis (SDS-PAGE) and transferred to polyvinylidene difluoride (PVDF) membrane (Bio-Rad Laboratories, Hercules, Calif.). The antibodies used for immunoblotting included: anti-phospho(p)-ERK, anti-ERK, anti-p-Akt, anti-Akt, anti-p-Src, anti-Src, anti-caspase-9, anti-PARP, anti-p-β-catenin, anti-β-catenin, anti-p-GSK3, anti-GAPDH and anti-α-tubulin antibodies (Cell Signaling, Danvers, Mass.).
To dissect the possible role of BMS-936564 in affecting WM signaling, WM cells were cultured in the absence or presence of primary WM BM-MSCs, with increasing concentrations of the anti-CXCR4 antibody.
On the technique in general: A western blot detects proteins with antibodies after separation by electrophoresis.

Assay [1] concerns C1013G/CXCR4-infected BCWM.1 cells. Description: Transwell migration assay of C1013G/CXCR4-infected cells. Conditions: in the context of the BM microenvironment. Type of assay: cell-based, human. The method, then: (§2) FIGS. 21A-21D: FIGS. 21A-21D show BMS-936564 targets C1013G/CXCR4-mutated cells in WM cells in the context of BM. C1013G/CXCR4-infected BCWM.1 cells were tested for their migratory properties using a transwell migration assay. Cells were exposed to increasing concentrations of BMS-936564 and migration was determined after 5 h. The transwell migration assay was performed in presence of either primary WM BM-MSCs (FIG. 21A) or SDF-1α (FIG. 21B). In both cases, BMS-936564-dependent inhibition of WM cell migration was observed. C1013G/CXCR4-infected BCWM.1 cells were treated with BMS-936564/for 4 h and subsequently tested for adhesion to primary WM BM-MSCs. […] C1013G/CXCR4-infected BCWM.1 cells were cultured with control media and with BMS-936564 for 48 h in the presence or absence of primary WM BM-MSCs. Cell proliferation was assessed using [^3H]-thymidine uptake assay (FIG. 21D). Bars indicate standard deviations. P indicates P value. All data represent mean (±sd) of triplicate experiments. […].

The test system is the same in assay [2]. Description: [3H]-thymidine uptake proliferation assay of C1013G/CXCR4-infected cells. Type of assay: cell-based, human. Conditions: in the context of the BM microenvironment, 48 h. The method, then:
as §2

The test system of the next assay is WM cell lines. Description: Adhesion of WM cells to primary WM BM-MSCs. Type of assay: cell-based, human. Conditions: 4 h treatment, adhesion after 2 h. How it is done: FIGS. 15A-15C: FIGS. 15A-15C show the effect of BMS-936564 on adhesion and proliferation of WM cells in vitro. WM cell lines were treated with BMS-936564 for 4 h and subsequently tested for adhesion to primary WM BM-MSCs. […] WM cell lines, MWCL.1 (FIG. 15B) and BCWN.1 (FIG. 15C) were cultured with control media and with BMS-936564 for 48 h in the presence or absence of primary WM BMMSCs. Cell proliferation was assessed using a [^3H]-thymidine uptake assay. Bars indicate standard deviations. P indicates P value. All data represent mean (±sd) of triplicate experiments. The CXCR4 antagonist, […] (Sigma-Aldrich, St. Louis, Mo.), was used as control.

Assay [3] concerns C1013G/CXCR4-mutated cells. Description: Western blot of survival and apoptosis-related proteins in C1013G/CXCR4-WM cells. In kind it is cell-based, human. How it is done:
FIGS. 22A-22C: FIGS. 22A-22C show the effect of BMS-936564 on survival and apoptosis-related signal proteins in C1013G/CXCR4-WM cells. C1013G/CXCR4-mutated cells were cultured in presence or absence of BMS-936564 for 6 h, showing inhibition of phospho(p)-ERK, ERK, p-Akt, Akt, p-Src (FIG. 22A). Similarly, cells were exposed to the compound for 14 h, and induction of apoptosis-related pathways was observed (p-GSK3β, and p-β-catenin (FIG. 22B), and PARP and Caspase-9 (FIG. 22C)).
as §1

Assay [4] relates to C1013G/CXCR4 variant-harboring BCWM.1 cells. Description: In vivo dissemination of C1013G/CXCR4-mutated WM cells (immunohistochemistry for human CD20 and CXCR4). Set-up: species or system SCID/Bg mice. The conditions noted are these: 10 mg/kg intraperitoneally, 3-4 times per week for 3 weeks. The method, then:
FIGS. 20A-20E: FIGS. 20A-20E show representative histochemical images of the effect of BMS-936564 on C1013G/CXCR4-mutated cells in WM cells in vivo. SCID/Bg mice were injected intravenously with either C1013G/CXCR4 variant-harboring BCWM.1 cells or empty/control vector-infected cells (control cells). Mice were treated with either BMS-936564 or control antibody (10 mg/kg, intraperitoneally; ×3/4/week; mice: 5/group). After 3 weeks mice were euthanized and organs harvested. Hematoxylin-eosin immunohistochemical staining for human CD20 and CXCR4 were performed on femur BM (FIG. 20A), liver (FIG. 20B), kidney (FIG. 20C), lung (FIG. 20D), and lymph nodes (FIG. 20E) (Nikon, Melville, N.Y.; 4×, 10× or 20× magnifications are shown).
Murine tissues (BM, liver, kidney, lung and lymph nodes) were analyzed and quantified for the expression of human CD20 and human CXCR4. These tissues were fixed in formalin 10%, ethanol 70% was used as storage solution; and embedded in paraffin. Paraffin sections were incubated with anti-human-CXCR4 (Abcam, Cambridge, Mass.), and anti-human-CD20 (Dako, Carpinteria, Calif.) monoclonal antibodies, using the Leica Bond III automated staining platform (Leica Biosystems, Buffalo Grove, Ill.). […] Quantification of CD20 and CXCR4 staining was performed using NIS Elements software (Nikon, Melville, N.Y.). […]

Turning to “BMS-936564: fully human anti-CXCR4 monoclonal antibody; VH SEQ ID NO: 25, VL SEQ ID NO: 29”, in the assay with BCWM.1 cells, the “p-Akt, p-ERK, and p-Src in WM cells” value is on record as “drug-dependent inhibition”. In addition, in assay [1], the “targeting migration of CXCR4-mutated cells” value is on record as “equally active”. In addition, the “targeting proliferative properties of CXCR4-mutated cells” value in assay [2] was “equally active”. Further, in the assay on WM cell lines, the “WM cell adhesion to WM BM-MSCs” value was “inhibition”. For the same substance, in assay [3] (6 h), the “p-ERK, p-Akt, and p-Src in WM cells harboring the C1013G/CXCR4 mutation” value is “dose-dependent inhibition”. Besides, in assay [3] (14 h), the “GSK3-β/β-catenin signaling in CXCR4-mutated WM cells” value is “up-regulation of p-GSK3-β/p-β-catenin and β-catenin degradation”; the “caspase-9- and PARP-cleavage in CXCR4-mutated WM cells” value is “increased”. Further, in assay [4], the “involvement of lymph nodes” value is reported as “absent”. The “CXCR4+/CD20+ cell infiltration in femur, liver, kidney and lung” value in assay [4] (vs control antibody-treated mice) is listed as “significant reduction”.

Source of the values: patent US11220548B2, “Treatment of C1013G/CXCR4-associated Waldenstrom's macroglobulinemia with an anti-CXCR4 antibody” (BRISTOL-MYERS SQUIBB COMPANY, priority 2013, dated 2022).
